From PMC12281487, “Discovery and Validation of a Novel Class of Necroptosis Inhibitors Targeting RIPK1” (ACS Chemical Biology, 2025)

Legend:
recombinant hRIPK1 = biological target: T1, recombinant hRIPK1 (Homo sapiens, UniProt Q13546); test: ADP-Glo kinase assay; type: biochemical; settings: for IC50: GST-RIPK1 75 nM
T1 construct: Th (between GST and residue 1); purchased BPS Bioscience 40371
T1 sequence (Q13546 1-327): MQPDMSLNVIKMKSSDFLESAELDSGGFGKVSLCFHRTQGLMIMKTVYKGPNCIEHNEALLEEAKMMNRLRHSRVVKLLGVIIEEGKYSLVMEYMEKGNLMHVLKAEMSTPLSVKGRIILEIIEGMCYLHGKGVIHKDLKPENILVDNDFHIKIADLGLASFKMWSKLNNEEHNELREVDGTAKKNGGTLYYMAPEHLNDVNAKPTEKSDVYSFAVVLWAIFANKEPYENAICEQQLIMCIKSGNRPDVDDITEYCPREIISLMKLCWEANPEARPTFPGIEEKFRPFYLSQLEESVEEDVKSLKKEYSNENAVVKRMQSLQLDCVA
Method: Compound potency and mode of inhibition against RIPK1 kinase activity were determined by using an ADP-Glo kinase assay (Promega). The assay was carried out in accordance with the manufacturer’s protocol. The initial kinase reaction was performed by incubating recombinant hRIPK1 (GST-Th-1-327 from BPS Bioscience ref 40371, 75 nM) with the inhibitor (0–100 μM) and ATP (0–500 μM) for 4 h at 24 °C in kinase assay buffer (50 mM HEPES pH 7.5, 50 mM NaCl, 30 mM MgCl2, 0.5 mg mL^–1 BSA, 0.02% CHAPS, and 4 mM DTT). Following this reaction, ADP-Glo Reagent and Kinase Detection Reagent were successively added and incubated for 1 and 0.5 h at 24 °C, respectively. A […] (kinase assay reaction/ADP-Glo Reagent/Kinase Detection Reagent) volume ratio of the kit’s components was used. Bioluminescence was measured on a Varioskan LUX multimode microplate reader with SkanIt Software. Experiments were conducted in triplicate. Concentration response curves and IC50 values were generated from nonlinear regression fits performed on GraphPad Prism 9.1.1. Additionally, the produced ADP concentration values were divided by the kinase reaction incubation time to calculate reaction velocity values and generate velocity curves. Velocity curves were fitted in Michaelis–Menten model on GraphPad Prism 9.1.1 to calculate the maximum velocity (v max) and Michaelis–Menten constant (K M) parameters.

RIPK1 = biological target: T2, RIPK1 (Homo sapiens, UniProt Q13546); test: Streptavidin mass shift assay (photoaffinity labeling, target engagement) in I2.1 cells; type: cell-based; settings: competition assay, pretreatment before 7PQYnD photoaffinity labeling
T2 construct: Following incubation of I2.1 cells with the probe, irradiation to induce photocrosslinking; endogenous in cells; host or cells: I2.1 FADD-deficient Jurkat T cells (ATCC, CRL-2572)
T2 sequence (Q13546 1-671): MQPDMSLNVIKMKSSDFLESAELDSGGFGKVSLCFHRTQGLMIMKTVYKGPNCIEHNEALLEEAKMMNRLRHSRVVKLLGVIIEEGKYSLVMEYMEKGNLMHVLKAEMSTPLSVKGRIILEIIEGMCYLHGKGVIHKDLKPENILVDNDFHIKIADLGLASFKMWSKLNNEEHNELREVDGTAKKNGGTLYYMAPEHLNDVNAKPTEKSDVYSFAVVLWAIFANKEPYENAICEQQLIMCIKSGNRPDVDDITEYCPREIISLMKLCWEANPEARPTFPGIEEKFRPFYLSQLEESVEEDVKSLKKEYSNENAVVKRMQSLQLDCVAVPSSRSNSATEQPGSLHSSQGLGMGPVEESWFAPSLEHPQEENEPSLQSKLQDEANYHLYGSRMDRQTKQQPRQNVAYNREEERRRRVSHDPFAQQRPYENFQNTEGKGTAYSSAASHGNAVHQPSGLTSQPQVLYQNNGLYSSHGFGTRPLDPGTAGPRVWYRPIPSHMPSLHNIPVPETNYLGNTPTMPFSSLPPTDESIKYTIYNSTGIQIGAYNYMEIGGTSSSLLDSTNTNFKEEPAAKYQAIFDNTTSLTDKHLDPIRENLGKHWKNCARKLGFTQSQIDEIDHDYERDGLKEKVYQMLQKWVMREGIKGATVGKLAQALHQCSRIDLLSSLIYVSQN
Method: Target engagement was confirmed by Streptavidin mass shift assay, whereby lysates are incubated with streptavidin and subsequently separated by SDS–PAGE. The high stability of streptavidin at a range of temperatures, in various detergents and pH, in combination with the extremely high affinity for biotin means the streptavidin–biotin interaction is not separated during gel electrophoresis, resulting in a mass shift of biotin-labeled proteins in the presence of streptavidin, which can be visualized by Western blot (Figure a).
I2.1 cells were seeded in sterile six-well plates at a density of 2 × 10^6 cells per well and incubated at 37 °C overnight. 1000× stocks of the desired concentration of compound in DMSO were preprepared. […]
Cells were transferred to a microcentrifuge tube, centrifuged at 200g for 5 min, and media removed. […] Protein concentration was determined using the DC Protein Assay (Bio-Rad) in a 96-well plate as per the manufacturer’s instructions and the concentration adjusted to 1–2 mg mL^–1 using lysis buffer. […]
Samples were prepared by adding 4 μL of 4× loading buffer to 10 μL of the protein samples and boiling at 95 °C for 10 min. […] In-gel fluorescence was detected by using a Typhoon FLA 9500 biomolecular imager (750 V, 100 μm pixels). […]

## CN1C(=O)C(Cc2c[nH]c3ccccc23)NC1=S (stereo not shown) [Nec-1, Necrostatin 1]
Recombinant hRIPK1; ATP concentration 10 μM
  IC50: 2.7 µM
Recombinant hRIPK1; ATP concentration 500 μM
  IC50: 8.1 µM
Recombinant hRIPK1; ATP concentrations 10–500 μM
  mode of inhibition with respect to ATP: competition with ATP
RIPK1
  7PQYnD-mediated RIPK1 streptavidin band shift after pretreatment with competitor: retained
